Results reported in patent US7449571B2, “Halogenated aminoquinolines and oligonucleotides containing the same” (Board of Regents of the University of Nebraska, priority 2005, dated 2008).
Where two headings read alike, the source gives them in different places.

Experiments:
[1] = Li et al. 2003, Li et al. 2004; cited from earlier work

Row | pKa (NaOAc buffer, pH 4.602-8.322, UV absorbance at 235 nm or fluorescence emission vs pH) | fraction of antiAT-F protonated (pH 8.0) | SMILES | pKa [1]
1 | – | – | Nc1nc([C@H]2C[C@H](O)[C@@H](CO)O2)c2ccccc2n1 [antiAT, 2-amino-4-(2′-deoxy-β-D-ribofuranosyl)quinazoline] | 4.8
2 | 6.7 | approximately 2% | Nc1cc([C@H]2C[C@H](O)[C@@H](CO)O2)c2cc(F)ccc2n1 [antiAT-F, 2-amino-6-fluoro-4-(2′-deoxy-β-D-ribofuranosyl)-quinoline] | –
3 | – | – | Nc1cc([C@H]2C[C@H](O)[C@@H](CO)O2)c2ccccc2n1 [antiGC, 2-amino-4-(2′-deoxy-β-D-ribofuranosyl) quinoline] | 7.2
